Experimental data published in ChEMBL document CHEMBL1201862, “PubChem BioAssay data set” (2004).
The source made the active and inactive calls.

How the values were obtained:
[1] = target: ADP-ribosylation factor GTPase-activating protein 1 (Rattus norvegicus, UniProt Q62848); experiment: Fluorescence polarization-based biochemical high throughput dose response screening assay to identify inhibitors of ADP-ribosylation factor GTPase activating protein 1 (ARFGAP1).; format: functional
[2] = target: T1, Carboxy-terminal domain RNA polymerase II polypeptide A small phosphatase 1 (Homo sapiens, UniProt Q9GZU7); experiment: inhibitors of CTDSP1, concentration-response testing, biochemical assay, absorbance-based, actives from ultra-high-throughput screening (AID 540297); format: functional
T1 sequence (Q9GZU7 whole entry): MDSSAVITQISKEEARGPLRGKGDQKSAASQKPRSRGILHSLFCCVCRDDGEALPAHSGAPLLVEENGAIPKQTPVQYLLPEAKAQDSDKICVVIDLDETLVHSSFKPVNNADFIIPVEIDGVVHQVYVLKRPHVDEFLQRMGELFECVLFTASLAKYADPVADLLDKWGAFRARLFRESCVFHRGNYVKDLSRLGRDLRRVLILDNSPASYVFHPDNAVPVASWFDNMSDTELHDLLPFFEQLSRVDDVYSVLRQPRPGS

[3] = target: T2, Small ubiquitin-related modifier 1 (Homo sapiens, UniProt P63165); experiment: inhibitors of SUMO1 peptide binding, dose response, biochemical, fluorescence polarization, uHTS hits (AID 624382); format: functional; settings: read-out: IC50_Mean
T2 sequence (P63165 whole entry): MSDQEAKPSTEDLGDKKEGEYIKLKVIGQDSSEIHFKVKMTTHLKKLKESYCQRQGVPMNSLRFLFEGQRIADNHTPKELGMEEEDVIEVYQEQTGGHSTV

[4] = target: T2, Small ubiquitin-related modifier 1; experiment: inhibitors of SUMO1 partner interactions, dose response, biochemical, FRET (AID 624383); format: functional; settings: read-out: IC50_Mean
Interleukin-8 = Interleukin-8 (Homo sapiens, UniProt P10145); experiment: Dose Response confirmation of uHTS small molecule hits for cystic fibrosis induced NFkb Inhibitors in a PAF-induced IL8 counterscreen.; format: functional; settings: read-out: IC50_Mean
Interleukin-8, sequence (P10145 whole entry): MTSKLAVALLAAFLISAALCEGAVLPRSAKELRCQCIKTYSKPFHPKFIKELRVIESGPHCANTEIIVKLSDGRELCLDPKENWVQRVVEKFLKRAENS

[5] = target: Dual specificity protein kinase CLK1 (Homo sapiens, UniProt P49759); experiment: CLK1 kinase inhibitors, off-target check, dose response, selectivity assay for Dyrk1A inhibitor project, biochemical, cherry-picked samples (AID 588811)
Dual specificity protein kinase CLK1, sequence (P49759 whole entry): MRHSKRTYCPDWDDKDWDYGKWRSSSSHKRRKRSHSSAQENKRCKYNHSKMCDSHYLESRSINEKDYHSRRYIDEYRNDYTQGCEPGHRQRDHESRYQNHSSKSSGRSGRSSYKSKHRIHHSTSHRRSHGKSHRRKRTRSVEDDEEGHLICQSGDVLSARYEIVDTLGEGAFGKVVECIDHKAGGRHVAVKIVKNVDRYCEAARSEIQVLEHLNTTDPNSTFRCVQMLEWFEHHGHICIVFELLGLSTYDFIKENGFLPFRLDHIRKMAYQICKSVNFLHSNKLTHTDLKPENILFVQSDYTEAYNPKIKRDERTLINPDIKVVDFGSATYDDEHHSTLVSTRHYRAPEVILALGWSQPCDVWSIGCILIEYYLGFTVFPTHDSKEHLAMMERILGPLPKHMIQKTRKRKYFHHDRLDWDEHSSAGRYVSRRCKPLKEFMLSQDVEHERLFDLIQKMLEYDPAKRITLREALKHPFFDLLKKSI

[6] = target: T3, ATP-dependent translocase ABCB1 (Homo sapiens, UniProt P08183); experiment: ABCG2 efflux pump inhibitor potency, dose response, Ig-MXP3 cells, JC-1, flow cytometry, set 2 (AID 504566); format: functional; settings: read-out: EC50_MICROM_;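 also: flow cytometry median green fluorescence of retained JC-1 dye; potency of efflux pump inhibition measured as rising substrate retention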
T3 sequence (P08183 whole entry): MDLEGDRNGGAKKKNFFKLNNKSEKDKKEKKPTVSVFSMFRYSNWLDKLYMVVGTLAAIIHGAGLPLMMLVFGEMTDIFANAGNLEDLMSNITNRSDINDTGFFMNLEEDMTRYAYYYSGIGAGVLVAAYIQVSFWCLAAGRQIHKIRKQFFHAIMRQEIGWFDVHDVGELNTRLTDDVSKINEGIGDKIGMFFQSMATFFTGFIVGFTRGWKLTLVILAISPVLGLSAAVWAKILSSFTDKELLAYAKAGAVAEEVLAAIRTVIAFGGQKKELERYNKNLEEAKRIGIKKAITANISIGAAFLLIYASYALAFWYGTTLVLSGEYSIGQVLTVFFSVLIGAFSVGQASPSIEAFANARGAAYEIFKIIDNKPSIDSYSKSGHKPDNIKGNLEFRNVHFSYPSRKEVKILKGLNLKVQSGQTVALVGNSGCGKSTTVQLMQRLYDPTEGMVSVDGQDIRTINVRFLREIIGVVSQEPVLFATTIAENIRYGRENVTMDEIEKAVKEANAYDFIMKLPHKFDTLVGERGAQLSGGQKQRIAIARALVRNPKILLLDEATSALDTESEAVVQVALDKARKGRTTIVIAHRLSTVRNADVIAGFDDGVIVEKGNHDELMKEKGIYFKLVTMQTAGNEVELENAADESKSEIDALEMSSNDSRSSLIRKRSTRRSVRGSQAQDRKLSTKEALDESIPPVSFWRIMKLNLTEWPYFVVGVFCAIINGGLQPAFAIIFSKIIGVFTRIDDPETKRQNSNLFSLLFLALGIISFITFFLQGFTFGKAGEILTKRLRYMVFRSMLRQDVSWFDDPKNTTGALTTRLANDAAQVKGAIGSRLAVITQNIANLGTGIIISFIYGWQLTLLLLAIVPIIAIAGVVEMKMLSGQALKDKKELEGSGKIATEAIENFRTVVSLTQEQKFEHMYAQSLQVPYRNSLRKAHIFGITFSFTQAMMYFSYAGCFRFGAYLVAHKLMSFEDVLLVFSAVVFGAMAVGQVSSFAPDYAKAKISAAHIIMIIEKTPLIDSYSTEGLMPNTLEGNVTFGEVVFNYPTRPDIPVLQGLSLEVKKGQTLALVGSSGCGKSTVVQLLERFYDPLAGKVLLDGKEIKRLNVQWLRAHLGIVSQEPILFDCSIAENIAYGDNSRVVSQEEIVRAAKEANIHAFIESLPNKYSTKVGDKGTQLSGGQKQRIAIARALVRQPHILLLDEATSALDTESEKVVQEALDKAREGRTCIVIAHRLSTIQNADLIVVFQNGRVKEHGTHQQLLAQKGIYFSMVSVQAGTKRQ

[7] = target: T3, ATP-dependent translocase ABCB1; experiment: ABCB1 efflux inhibitor potency, dose response, Jurkat-DNR cells, JC-1, flow cytometry, set 2 (AID 504569); format: functional; settings: read-out: EC50_MICROM_;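 also: potency of pump inhibitors that raise cellular JC-1 green fluorescence up to the nicardipine level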
[8] = target: Cyclin-dependent kinase 8 (Homo sapiens, UniProt P49336); experiment: Navigating the Kinome. Panel member name: CDK8; format: functional
Cyclin-dependent kinase 8, sequence (P49336 whole entry): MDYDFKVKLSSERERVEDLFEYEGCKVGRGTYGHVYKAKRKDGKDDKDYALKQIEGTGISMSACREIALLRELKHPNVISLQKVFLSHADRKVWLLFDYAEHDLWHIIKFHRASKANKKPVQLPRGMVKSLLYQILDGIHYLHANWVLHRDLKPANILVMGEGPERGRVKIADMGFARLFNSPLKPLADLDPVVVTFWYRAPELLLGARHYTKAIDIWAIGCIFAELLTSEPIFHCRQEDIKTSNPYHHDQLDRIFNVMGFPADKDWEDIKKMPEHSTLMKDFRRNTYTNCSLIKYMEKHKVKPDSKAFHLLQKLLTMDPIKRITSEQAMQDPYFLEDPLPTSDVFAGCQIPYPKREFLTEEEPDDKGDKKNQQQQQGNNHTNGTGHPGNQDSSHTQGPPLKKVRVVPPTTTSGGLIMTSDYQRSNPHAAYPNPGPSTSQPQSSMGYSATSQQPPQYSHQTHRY

[9] = target: Cyclin-dependent kinase 7 (Homo sapiens, UniProt P50613); format: functional;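 also: value comes from a kinome-wide kinase profiling panel in which CDK7 is one member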
Cyclin-dependent kinase 7, sequence (P50613 whole entry): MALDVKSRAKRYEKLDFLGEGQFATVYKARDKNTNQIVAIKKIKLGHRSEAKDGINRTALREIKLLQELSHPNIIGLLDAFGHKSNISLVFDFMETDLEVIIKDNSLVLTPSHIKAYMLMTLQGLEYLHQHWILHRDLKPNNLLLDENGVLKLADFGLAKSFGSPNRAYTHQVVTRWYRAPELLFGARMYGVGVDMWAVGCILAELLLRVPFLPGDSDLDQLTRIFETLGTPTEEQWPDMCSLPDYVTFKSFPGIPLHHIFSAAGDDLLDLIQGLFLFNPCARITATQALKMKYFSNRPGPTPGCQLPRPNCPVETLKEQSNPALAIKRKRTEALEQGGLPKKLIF

[10] = target: Cyclin-dependent kinase 9 (Homo sapiens, UniProt P50750); format: functional;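 also: value from the CDK9 entry of a kinome-spanning kinase panel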
Cyclin-dependent kinase 9, sequence (P50750 whole entry): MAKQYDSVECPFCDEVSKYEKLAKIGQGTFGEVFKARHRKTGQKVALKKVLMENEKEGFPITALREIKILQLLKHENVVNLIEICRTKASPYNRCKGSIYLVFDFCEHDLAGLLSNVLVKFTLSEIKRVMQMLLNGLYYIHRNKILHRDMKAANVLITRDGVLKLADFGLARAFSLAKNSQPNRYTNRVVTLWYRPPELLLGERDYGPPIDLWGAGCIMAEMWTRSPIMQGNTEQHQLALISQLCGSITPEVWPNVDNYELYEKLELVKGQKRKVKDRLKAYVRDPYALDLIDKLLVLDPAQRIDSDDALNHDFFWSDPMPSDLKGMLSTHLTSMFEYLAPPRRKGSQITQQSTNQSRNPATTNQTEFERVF

Beta-lactamase [11] = target: Beta-lactamase (Salmonella choleraesuis (strain SC-B67), UniProt Q5J463); experiment: Epi-absorbance-based counterscreen for selective VIM-2 inhibitors: dose response biochemical high throughput screening assay to identify inhibitors of TEM-1 serine-beta-lactamase.
Beta-lactamase (Salmonella choleraesuis (strain SC-B67), UniProt Q5J463), sequence (Q5J463 whole entry): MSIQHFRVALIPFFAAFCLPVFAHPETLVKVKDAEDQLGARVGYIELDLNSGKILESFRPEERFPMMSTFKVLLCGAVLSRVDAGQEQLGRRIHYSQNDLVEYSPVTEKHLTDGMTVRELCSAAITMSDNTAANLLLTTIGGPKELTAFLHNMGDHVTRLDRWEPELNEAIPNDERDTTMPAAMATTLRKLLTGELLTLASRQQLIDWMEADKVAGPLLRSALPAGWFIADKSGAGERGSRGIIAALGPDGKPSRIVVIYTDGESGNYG

Leucine aminopeptidase = target: T4, Leucine aminopeptidase (Plasmodium falciparum 3D7, UniProt Q8IL11); experiment: P. falciparum M17LAP inhibitors, primary screen, biochemical, fluorogenic H-Leu-NHMec substrate, 1536-well (AID 1619); format: functional
T4 sequence (Q8IL11 whole entry): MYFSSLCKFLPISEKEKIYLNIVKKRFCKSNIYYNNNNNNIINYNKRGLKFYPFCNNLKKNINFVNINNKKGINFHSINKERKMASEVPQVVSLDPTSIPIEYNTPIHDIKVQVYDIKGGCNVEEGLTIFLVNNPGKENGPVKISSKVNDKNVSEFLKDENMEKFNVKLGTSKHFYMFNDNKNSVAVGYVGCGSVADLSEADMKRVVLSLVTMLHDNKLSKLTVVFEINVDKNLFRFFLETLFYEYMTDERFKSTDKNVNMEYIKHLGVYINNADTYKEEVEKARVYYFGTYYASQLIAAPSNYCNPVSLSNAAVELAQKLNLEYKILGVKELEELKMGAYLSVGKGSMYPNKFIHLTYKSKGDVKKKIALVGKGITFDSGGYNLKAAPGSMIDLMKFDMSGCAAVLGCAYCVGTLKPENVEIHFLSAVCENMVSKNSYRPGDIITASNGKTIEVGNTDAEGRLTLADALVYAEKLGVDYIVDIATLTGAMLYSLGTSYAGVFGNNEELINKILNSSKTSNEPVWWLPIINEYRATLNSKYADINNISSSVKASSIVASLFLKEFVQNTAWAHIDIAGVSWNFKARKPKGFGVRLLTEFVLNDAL

Beta-lactamase [12] = target: T5, Beta-lactamase (Pseudomonas aeruginosa, UniProt Q79MP6); experiment: IMP-1 metallo-beta-lactamase inhibitors, dose response, selectivity assay for VIM-2 inhibitor project, biochemical, epi-absorbance (AID 1920)
T5 sequence (Q79MP6 whole entry): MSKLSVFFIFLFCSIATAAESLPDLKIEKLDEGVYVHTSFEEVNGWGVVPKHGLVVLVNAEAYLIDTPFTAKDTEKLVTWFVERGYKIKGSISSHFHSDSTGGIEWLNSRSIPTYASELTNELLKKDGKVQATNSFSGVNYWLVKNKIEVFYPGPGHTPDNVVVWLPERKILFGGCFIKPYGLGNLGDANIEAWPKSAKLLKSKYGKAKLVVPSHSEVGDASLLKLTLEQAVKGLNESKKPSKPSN

Beta Lactamase [13] = target: T6, Beta Lactamase (Pseudomonas aeruginosa, UniProt Q932Y6); experiment: VIM-2 metallo-beta-lactamase inhibitor potency, dose response, biochemical, epi-absorbance readout, selective inhibitors (AID 1919)
T6 sequence (Q932Y6 whole entry): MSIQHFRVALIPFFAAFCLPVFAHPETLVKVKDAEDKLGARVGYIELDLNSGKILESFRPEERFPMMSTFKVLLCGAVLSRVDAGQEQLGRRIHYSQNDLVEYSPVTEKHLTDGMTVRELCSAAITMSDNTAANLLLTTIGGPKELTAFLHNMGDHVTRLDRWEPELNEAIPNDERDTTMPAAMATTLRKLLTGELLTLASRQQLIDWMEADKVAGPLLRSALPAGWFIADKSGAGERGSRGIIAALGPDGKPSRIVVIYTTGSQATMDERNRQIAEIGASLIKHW

Beta-lactamase [14] = target: T5, Beta-lactamase; experiment: […] counterscreen for selective VIM-2 inhibitors: dose response biochemical high throughput screening assay to identify inhibitors of IMP-1 metallo-beta-lactamase.
Beta Lactamase [15] = target: T6, Beta Lactamase; experiment: VIM-2 inhibitor FRET-based artefact check, dose response, artefact control for selective VIM-2 inhibitor project, biochemical, FRET readout, CCF2 substrate (AID 1926)
[16] = target: T7, Probable nicotinate-nucleotide adenylyltransferase (Staphylococcus aureus (strain N315), UniProt P65502); format: functional, Staphylococcus aureus subsp. aureus N315;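 as to IC50 Mean: confirmatory dose-response retesting of NadD inhibitor hits first found in an ultra-high-throughput screen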
T7 sequence (P65502 whole entry): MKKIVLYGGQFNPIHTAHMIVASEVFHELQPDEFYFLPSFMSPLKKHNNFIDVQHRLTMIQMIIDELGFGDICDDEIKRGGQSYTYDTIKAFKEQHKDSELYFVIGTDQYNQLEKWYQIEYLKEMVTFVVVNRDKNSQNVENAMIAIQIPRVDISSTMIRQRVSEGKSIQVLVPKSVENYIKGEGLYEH

[17] = target: T7, Probable nicotinate-nucleotide adenylyltransferase; format: functional, Staphylococcus aureus subsp. aureus N315; settings: read-out: IC50_Mean
[18] = target: Mitogen-activated protein kinase 13 (Homo sapiens, UniProt O15264); format: functional
Mitogen-activated protein kinase 13, sequence (O15264 whole entry): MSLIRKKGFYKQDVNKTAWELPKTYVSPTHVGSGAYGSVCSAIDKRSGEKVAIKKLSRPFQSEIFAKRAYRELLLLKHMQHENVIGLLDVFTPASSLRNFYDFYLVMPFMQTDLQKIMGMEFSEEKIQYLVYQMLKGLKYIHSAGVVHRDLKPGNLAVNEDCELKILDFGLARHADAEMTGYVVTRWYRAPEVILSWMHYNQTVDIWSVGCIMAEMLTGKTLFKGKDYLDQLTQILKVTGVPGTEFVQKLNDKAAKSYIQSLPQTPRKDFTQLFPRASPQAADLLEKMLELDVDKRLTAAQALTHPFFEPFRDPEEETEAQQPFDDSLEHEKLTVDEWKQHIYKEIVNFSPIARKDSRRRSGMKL

ADP-ribosylation factor GTPase-activating protein 1, sequence (Q62848 whole entry, the tested form may be a part): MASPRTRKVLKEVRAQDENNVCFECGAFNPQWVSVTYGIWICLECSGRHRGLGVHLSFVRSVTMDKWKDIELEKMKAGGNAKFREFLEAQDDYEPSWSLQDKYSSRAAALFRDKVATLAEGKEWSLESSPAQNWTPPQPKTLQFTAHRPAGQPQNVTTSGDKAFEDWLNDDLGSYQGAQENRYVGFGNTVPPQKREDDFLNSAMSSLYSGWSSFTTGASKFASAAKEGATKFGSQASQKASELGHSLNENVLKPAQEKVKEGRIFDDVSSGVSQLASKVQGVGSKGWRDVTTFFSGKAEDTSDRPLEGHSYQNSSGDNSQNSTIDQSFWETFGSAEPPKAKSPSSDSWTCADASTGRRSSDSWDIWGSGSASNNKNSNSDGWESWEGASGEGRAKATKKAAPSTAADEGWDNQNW

`O=C(Nc1nnc(-c2ccc3c(c2)OCCO3)o1)c1ccc(Cc2ccccc2)cc1` was tested, and the IC50 [1] was 7.92 µM (active).

For `CC(Cc1c[nH]c2ccccc12)C(=O)NCc1ccco1` (stereo not given), the IC50 [2] was 19.4 µM (active), the IC50 [3] was > 66.6 µM (inactive) and the IC50 [4] was 12.2 µM (active).

With `c1ccc2c(-c3cncc4ccccc34)cncc2c1` the IC50 (Interleukin-8) was 16 µM (inactive).

In the case of `Clc1ccc(Nc2nccc(-c3ccc4c(c3)OCO4)n2)cc1`, the AC50 [5] is reported as 15.8 µM (active).

In the case of `O=C(c1ccco1)N1CCN(c2c3c(nc4cc(-c5cccc(F)c5)nn24)CCCC3)CC1`, the EC50 [6] is reported as 1.79 µM (active) and the EC50 [7] is reported as 4.41 µM (active).

With `OCC1OC(n2cnc3cc(Cl)c(Cl)cc32)C(O)C1O` (stereo not given) the Ki [8] was 2 µM (active), the Ki [9] was 2.51 µM (active) and the Ki [10] was 0.126 µM (active).

`O=C(O)c1cccc(NC(=S)N/N=C/c2ccccc2OCc2ccc(Br)cc2)c1` was tested, and the IC50 (Beta-lactamase [11]) was > 59.6 µM (inactive), the IC50 (Leucine aminopeptidase) was 13.3 µM (active) and the IC50 (Beta-lactamase [12]) was > 59.6 µM (inactive). The IC50 (Beta Lactamase [13]) was 10 µM (inactive), the IC50 (Beta-lactamase [14]) was > 59.6 µM (inactive) and the IC50 (Beta Lactamase [15]) was 0.885 µM (active). The IC50 [16] was 3.73 µM (active) and the IC50 [17] was 15.4 µM (active).

In the case of `CNCc1ccc(-c2[nH]c3cc(F)cc4c3c2CCNC4=O)cc1` [RUCAPARIB], the Ki [18] is reported as > 7.94 µM (inactive).
